# Source: PMC4451856, “Identification of a Peptide from In vivo Bacteriophage Display with Homology to EGFL6: A Candidate Tumor Vasculature Ligand in Breast Cancer” (Journal of molecular biomarkers & diagnosis, 2014)
# Peptide text beside a SMILES is read from it. * marks the point of attachment. DOTA = O=C(O)CN1CCN(CC(=O)O)CCN(CC(=O)*)CCN(CC(=O)O)CC1
# Columns and labels:
# [1] = system: HEK-293 cells; assay: 111In-DOTA-EGFL6 cell binding; assay type: cell-based, human; conditions: 37°C, 1 h, gamma counter, mean ± SD of 4 samples
# Protocol: (§1) DOTA-EGFL6 was diluted to 1 mg/mL in water and incubated with 0.1 M ammonium acetate (pH 5) and 18.5 MBq of ^111In at 80°C for 1 h. Reactions were quenched by addition of 10 µM EDTA. Radiolabeled peptide was purified by reverse phase HPLC using a linear gradient of acetonitrile plus 0.1% trifluoroacetic acid from 5–95% over 35 minutes. Acetonitrile was evaporated by nitrogen gas flow, and peptide was d iluted to appropriate concentration using sterile PBS.
# (§2) MDA-MB-435, MDA-MB-468, SK-BR-3 and HEK-293 cells were diluted to 2×10^6 cells/mL in Dulbelco’s Modified Eagle Medium (DMEM) with 0.1 mg/mL BSA. ^111In-DOTA-EGFL6 was diluted to 1×10^7 CPM/mL in DMEM plus 0.1% BSA and 100 µL of peptide was added to 200 µL of cells and incubated at 37°C for 1 h. Cells were washed three times with ice-cold PBS with 1% BSA and counted via gamma counter.
# [2] = system: MDA-MB-468 cells; assay: 111In-DOTA-EGFL6 cell binding; assay type: cell-based, human; conditions: 37°C, 1 h, gamma counter, mean ± SD of 4 samples
# Protocol: as §1, §2
# [3] = system: MDA-MB-435 cells; assay: 111In-DOTA-EGFL6 cell binding; assay type: cell-based, human; conditions: 37°C, 1 h, gamma counter, mean ± SD of 4 samples
# Protocol: as §1, §2
# [4] = system: SK-BR-3 cells; assay: 111In-DOTA-EGFL6 cell binding; assay type: cell-based, human; conditions: 37°C, 1 h, gamma counter, mean ± SD of 4 samples
# Protocol: as §1, §2
# [5] = in vivo; set-up: species or system SCID mice; conditions: SCID (outbred, Taconic), mouse, iv, total radioactivity
# Protocol: Four- to 6-week-old Severe Combined Immunodeficient (SCID) out bred mice (Taconic, Germantown, NY) was maintained in approved pathogen-free institutional housing. Animal studies were conducted as outlined in the NIH Guidelines for the Care and Use of Laboratory Animals and the Policy and Procedures for Animal Research of the Harry S. Truman Veterans Memorial Hospital. MDA-MB-435 human breast cancer xenografts (5×10^6) were established by subcutaneous injection into the flank of SCID mice. Mice were utilized when visual tumors (~1–3mm^3) formed after approximately 5 weeks.
# DOTA-EGFL6 peptide was radiolabeled with ^111In and purified peptide was prepared at 1.85 MBq/mL in sterile PBS. Three mice bearing MDA-MB-435 tumors were intravenously injected with ^111In-DOTA-EGFL6 and sacrificed at 2 h. Organs and tissues pertinent to tumor uptake and clearance were excised, weighed, and counted by gamma counter. Percentage of injected dose per gram (%ID/g) of tissue was reported to normalize uptake by tissue mass.
# [6] = system: MDA-MB-435 human breast cancer xenograft; assay type: in vivo, SCID mice; conditions: 2 h post-injection, intravenous
# Protocol: Four- to 6-week-old Severe Combined Immunodeficient (SCID) out bred mice (Taconic, Germantown, NY) was maintained in approved pathogen-free institutional housing. Animal studies were conducted as outlined in the NIH Guidelines for the Care and Use of Laboratory Animals and the Policy and Procedures for Animal Research of the Harry S. Truman Veterans Memorial Hospital. MDA-MB-435 human breast cancer xenografts (5×10^6) were established by subcutaneous injection into the flank of SCID mice. Mice were utilized when visual tumors (~1–3mm^3) formed after approximately 5 weeks. Radiolabeled, purified ^111In-DOTA-GSG-EGFL6 was diluted to 11.1 MBq in 100 µL of sterile PBS. The peptide was injected intravenously in a mouse bearing an MDA-MB-435 human breast cancer xenograft. Following injection, radiolabeled peptide was permitted to circulate for 2h, followed by euthanization by carbon dioxide. The treated mouse was imaged at the Harry S. Truman Veterans Memorial Hospital Biomolecular Imaging Center. Overnight (7h) image acquisition was performed with a Siemens Inveon Micro-SPECT/CT (Siemens, Knoxville, TN) equipped with mouse whole body 1.0 mm collimators. Data were processed with Inveon Research Workplace processing software and fan beam (Feldkamp) filtered back projection algorithms were used for reconstruction of the CT tomographic image.
# [7] = system: MDA-MB-435 cells; conditions: ref Previous work (reference number not given); cited from earlier work
# [8] = system: HEK-293 cells; assay: Biotinylated peptide fluorescent microscopy; assay type: cell-based, human; conditions: fixed HEK-293 cells, 10 µM biotinylated peptide in PBS, 1 h room temperature, Neutravidin Texas Red detection
# Protocol: (§3) All cell lines were grown to 80% confluency and fixed with 4% paraformaldehyde. Cells were dried onto microscope slides overnight followed by rehydration with PBS. Slides were blocked with 5% BSA in PBS for 2 h at room temperature. Biotinylated EGFL6 peptide was diluted to 10 µM in PBS and 100 µL was added to each cell sample for incubation at room temperature for 1 h. Slides were washed 3 times with 0.1% TBST and cells were incubated with Neutravidin Texas Red (Life Technologies, Rockville, MD) diluted to 5 µg/mL in 0.1% TBST for 1 h at room temperature. Washing was performed in the same manner and cells were visualized by an epifluorescent Nikon T1-SM inverted microscope (Nikon, Melville, NY).
# [9] = system: MDA-MB-468 cells; assay: Biotinylated peptide fluorescent microscopy; assay type: cell-based, human; conditions: fixed MDA-MB-468 cells, 10 µM biotinylated peptide in PBS, 1 h room temperature, Neutravidin Texas Red detection
# Protocol: as §3
# [10] = system: MDA-MB-435 cells; assay: Biotinylated peptide fluorescent microscopy; assay type: cell-based, human; conditions: fixed MDA-MB-435 cells, 10 µM biotinylated peptide in PBS, 1 h room temperature, Neutravidin Texas Red detection
# Protocol: as §3
# [11] = system: SK-BR-3 cells; assay: Biotinylated peptide fluorescent microscopy; assay type: cell-based, human; conditions: fixed SK-BR-3 cells, 10 µM biotinylated peptide in PBS, 1 h room temperature, Neutravidin Texas Red detection
# Protocol: as §3
compound,measurement,setting,value
"C[C@H](NC(=O)[C@H](Cc1c[nH]c2ccccc12)NC(=O)[C@H](CCCCN)NC(=O)[C@@H](NC(=O)CNC(=O)CNC(=O)[C@H](CO)NC(=O)CNC(=O)CN1CCN(CC(=O)O)CCN(CC(=O)O)CCN(CC(=O)O)CC1)[C@@H](C)O)C(=O)N[C@@H](CS)C(=O)N[C@@H](CS)C(=O)N[C@@H](Cc1ccc(O)cc1)C(=O)NCC(=O)N[C@@H](Cc1c[nH]c2ccccc12)C(=O)N[C@@H](CCCNC(=N)N)C(=O)N[C@@H](CC(N)=O)C(=O)N[C@@H](CO)C(=O)N[C@@H](CO)C(=O)O [^111In-DOTA-EGFL6, metal not drawn] ({DOTA}-GSGGTKWACCYGWRNSS-OH; N-terminus and C-terminus assumed)","Peptide binding, % of total peptide added",[1],5.4 ± 0.5%
same,"Peptide binding, % of total peptide added",[2],10.5% ± 2.7
same,"Peptide binding, % of total peptide added",[3],12.3 ± 1.0%
same,"Peptide binding, % of total peptide added",[4],4.7 ± 0.2%
same,tissue uptake at 2 h,[5]; Blood retention,1.3 ± 0.51 %ID/g
same,tissue uptake at 2 h,[5]; Kidney retention,28.6 ± 4.24 %ID/g
same,tissue uptake at 2 h,"[5]; Non-target organ accumulation, all organs measured except the kidneys",< 1 %ID/g
same,tissue to tissue ratio at 2 h,[5]; Tumor to blood ratio,0.27
same,tissue to tissue ratio at 2 h,[5]; Tumor to muscle ratio,2.7
same,tissue uptake at 2 h,[5]; Tumor uptake,0.36 ± 0.08 %ID/g
same,Radiolabel at interface between xenograft and muscle (vasculature-like binding) in SPECT/CT image,[6],strikingly high concentration of radiolabel
same,Tumor uptake in SPECT/CT image,"[6]; 11.1 MBq, one mouse",low tumor uptake
"GTKSKCCYSLRRSS [3-G03, phage selected peptide with 64% homology to EGFL6]",Binding to MDA-MB-435 cells in vitro,[7],bound to MDA-MB-435 cells
"GTKWACCYGWRNSS [Biotinylated EGFL6 peptide, EGFL6 peptide with N-terminal GSG spacer conjugated at the N-terminus with biotin]",Peptide binding by fluorescent microscopy,[8],no binding
same,Peptide binding by fluorescent microscopy,[9],bound strongly
same,Peptide binding by fluorescent microscopy,[10],bound strongly
GTKWACCYGWRNSS [EGFL6 peptide],Peptide binding by fluorescent microscopy,[11],undetectable
